The values below come from ChEMBL document CHEMBL1156794, “Synthesis and antimicrobial evaluation of amphiphilic neamine derivatives” (J Med Chem, 2010).

Converted amounts (≈) assume the structure as drawn.

In test [1] the test system is Acinetobacter lwoffii. As to the kind of experiment: microbe, parasite or virus in culture. The settings on record: ATCC 17925, 24 h.
Description: Antibacterial activity against Acinetobacter lwoffii ATCC 17925 after 24 hrs by geometric microdilution method
Test [2] concerns Pseudomonas aeruginosa. Briefly: Antibacterial activity against TriABC expressing MexAB, MexCD, MexEF, MexXY deleted Pseudomonas aeruginosa PA405 after 24 hrs by geometric microdilution method. The test is classed as functional. In general terms: Dilution methods test growth across graded concentrations, often in twofold steps.
The test system of test [3] is Pseudomonas aeruginosa. Briefly: Antibacterial activity against MexXY expressing Pseudomonas aeruginosa PA22 after 24 hrs by geometric microdilution method. The class given is functional.
For test [4], the system named is Pseudomonas aeruginosa. Briefly: Antibacterial activity against Pseudomonas aeruginosa ATCC 27853 after 24 hrs by geometric microdilution method. The test is classed as functional.
Test [5] deals with Pseudomonas aeruginosa. As to the kind of experiment: Antibacterial activity against MexEF expressing Pseudomonas aeruginosa PA03 after 24 hrs by geometric microdilution method. The class given is functional.
The subject of the next test is Klebsiella pneumoniae. Briefly: Antibacterial activity against Klebsiella pneumoniae ATCC 700603 after 24 hrs by geometric microdilution method. The class given is functional.
The subject of test [6] is Escherichia coli. Briefly: Antibacterial activity against AAC6'-2b expressing Escherichia coli PAZ505H8101 after 24 hrs by geometric microdilution method. The test is classed as functional.
Test [7] has as its system Acinetobacter lwoffii. As to the kind of experiment: Antibacterial activity against […] expressing Acinetobacter lwoffii AI.88-483 after 24 hrs by geometric microdilution method. The class given is functional.
Test [8] deals with Pseudomonas aeruginosa. As to the kind of experiment: Antibacterial activity against MexAB, MexCD, MexEF, MexXY, TriABC deleted Pseudomonas aeruginosa PA406 after 24 hrs by geometric microdilution method. The test is classed as functional.
The subject of test [9] is Pseudomonas aeruginosa. As to the kind of experiment: Antibacterial activity against AAC6'-2a expressing Pseudomonas aeruginosa F03 after 24 hrs by geometric microdilution method. The test is classed as functional.
The subject of test [10] is Escherichia coli. Briefly: microbe, parasite or virus in culture. The following applies: ATCC 25922, 24 h.
Description: Antibacterial activity against Escherichia coli ATCC 25922 after 24 hrs by geometric microdilution method
Test [11] has as its system Pseudomonas aeruginosa. As to the kind of experiment: Antibacterial activity against MexXY expressing Pseudomonas aeruginosa PT629 after 24 hrs by geometric microdilution method. The test is classed as functional.
Test [12] deals with Escherichia coli. As to the kind of experiment: Antibacterial activity against R-methylase expressing Escherichia coli 06AB003 after 24 hrs by geometric microdilution method. The test is classed as functional.
Test [13] has as its system Pseudomonas aeruginosa. As to the kind of experiment: Antibacterial activity against MexAB expressing Pseudomonas aeruginosa PA21 after 24 hrs by geometric microdilution method. The test is classed as functional.
In test [14] the test system is Escherichia coli. As to the kind of experiment: Antibacterial activity against ANT2'-2a expressing Escherichia coli L58058.1 after 24 hrs by geometric microdilution method. The class given is functional.
A further test deals with Klebsiella aerogenes. As to the kind of experiment: Antibacterial activity against R-methylase expressing Enterobacter aerogenes 06AB008 after 24 hrs by geometric microdilution method. The test is classed as functional.
The test system of test [15] is Pseudomonas aeruginosa. As to the kind of experiment: Antibacterial activity against MexCD expressing Pseudomonas aeruginosa PA01 after 24 hrs by geometric microdilution method. The class given is functional.
In another test the test system is Citrobacter amalonaticus. Briefly: Antibacterial activity against R-methylase expressing Citrobacter amalonaticus 06AB0010 after 24 hrs by geometric microdilution method. The class given is functional.
Test [16] concerns Pseudomonas aeruginosa. Briefly: Antibacterial activity against Pseudomonas aeruginosa PAO1 after 24 hrs by geometric microdilution method. The class given is functional.
Test [17] has as its system Staphylococcus aureus. As to the kind of experiment: Antibacterial activity against aminoglycoside-4'-O-phosphoryltransferase expressing Staphylococcus aureus after 24 hrs by geometric microdilution method. The class given is functional.
In test [18] the test system is Staphylococcus aureus. Briefly: Antibacterial activity against methicillin-resistant Staphylococcus aureus ATCC 33592 clinical isolate after 24 hrs by geometric microdilution method. The test is classed as functional. The following applies: ATCC 33592, 24 h.
Test [19] concerns Staphylococcus aureus. Briefly: Antibacterial activity against Staphylococcus aureus ATCC 25923 after 24 hrs by geometric microdilution method. The settings on record: ATCC 25923, 24 h. The class given is functional.
Test [20] has as its system Staphylococcus aureus. As to the kind of experiment: Antibacterial activity against aminoglycoside-6'-N-acetyltransferase/2''-O-phosphoryltransferase expressing Staphylococcus aureus after 24 hrs by geometric microdilution method. The test is classed as functional.
For test [21], the system named is Staphylococcus aureus. As to the kind of experiment: Antibacterial activity against vancomycin-resistant Staphylococcus aureus VRS-2 after 24 hrs by geometric microdilution method. The class given is functional. The following applies: VRS-2, 24 h.
Test [22] concerns Staphylococcus aureus. Briefly: Antibacterial activity against NorA pump expressing Staphylococcus aureus after 24 hrs by geometric microdilution method. The test is classed as functional.
The test system of test [23] is Staphylococcus aureus. As to the kind of experiment: Antibacterial activity against aminoglycoside-3'-O-phosphoryltransferase expressing Staphylococcus aureus after 24 hrs by geometric microdilution method. The test is classed as functional.
Test [24] relates to Staphylococcus aureus. As to the kind of experiment: Antibacterial activity against MsrA pump expressing Staphylococcus aureus after 24 hrs by geometric microdilution method. The test is classed as functional.

For the molecule `NC[C@H]1O[C@H](O[C@H]2[C@H](O)[C@@H](O[C@H]3O[C@H](CO)[C@@H](O)[C@H](N)[C@H]3O)[C@H](N)C[C@@H]2N)[C@H](N)C[C@@H]1O` [TOBRAMYCIN], the MIC in the test with Acinetobacter lwoffii [1] is 0.5 µg/mL (≈ 1.07 µM); in the test on Pseudomonas aeruginosa [2] (PA405, 24 h), below 0.25 µg/mL; in the test with Pseudomonas aeruginosa [3] (PA22, 24 h), 1 µg/mL (≈ 2.14 µM); against Pseudomonas aeruginosa [4] (ATCC 27853, 24 h), 0.5 µg/mL (≈ 1.07 µM); in the test on Pseudomonas aeruginosa [5] (PA03, 24 h), below 0.25 µg/mL; in the test with Klebsiella pneumoniae (ATCC 700603, 24 h), 4 µg/mL (≈ 8.56 µM). Moreover, the MIC with Escherichia coli [6] (PAZ505H8101, 24 h) is 32 µg/mL (≈ 68.4 µM); against Acinetobacter lwoffii [7] (AI.88-483, 24 h), 1 µg/mL (≈ 2.14 µM); against Pseudomonas aeruginosa [8] (PA406, 24 h), below 0.25 µg/mL; against Pseudomonas aeruginosa [9] (F03, 24 h), 128 µg/mL (≈ 274 µM); in the test with Escherichia coli [10], 0.5 µg/mL (≈ 1.07 µM); with Pseudomonas aeruginosa [11] (PT629, 24 h), 1 µg/mL (≈ 2.14 µM). Also, the MIC against Escherichia coli [12] (06AB003, 24 h) was above 128 µg/mL; in the test on Pseudomonas aeruginosa [13] (PA21, 24 h), 0.5 µg/mL (≈ 1.07 µM); in the test on Escherichia coli [14] (L58058.1, 24 h) it was 64 µg/mL (≈ 137 µM); in the test with Klebsiella aerogenes (06AB008, 24 h), above 128 µg/mL; against Pseudomonas aeruginosa [15] (PA01, 24 h), 0.5 µg/mL (≈ 1.07 µM); against Citrobacter amalonaticus (06AB0010, 24 h), above 128 µg/mL. In the test on Pseudomonas aeruginosa [16] (PAO1, 24 h), this molecule gave an MIC of 0.5 µg/mL (≈ 1.07 µM).

For GENTAMICIN, the MIC was below 0.125 µg/mL with Pseudomonas aeruginosa [2]; 4 µg/mL against Pseudomonas aeruginosa [3]; 1 µg/mL with Pseudomonas aeruginosa [4]; 1 µg/mL in the test on Pseudomonas aeruginosa [5]; 8 µg/mL in the test on Klebsiella pneumoniae; 1 µg/mL against Escherichia coli [6]. In addition, the MIC against Acinetobacter lwoffii [7] is 4 µg/mL; in the test with Pseudomonas aeruginosa [8], below 0.125 µg/mL; in the test with Pseudomonas aeruginosa [9], above 28 µg/mL; in the test with Pseudomonas aeruginosa [11] it was 4 µg/mL; in the test on Escherichia coli [12], above 128 µg/mL; against Pseudomonas aeruginosa [13], 1 µg/mL. The MIC against Escherichia coli [14] was 64 µg/mL; with Klebsiella aerogenes it was above 128 µg/mL; in the test with Pseudomonas aeruginosa [15], 1 µg/mL; with Citrobacter amalonaticus, above 128 µg/mL; in the test on Pseudomonas aeruginosa [16], 2 µg/mL.

In the case of `NC[C@H]1O[C@H](O[C@H]2[C@H](O)[C@@H](OCc3ccc4ccccc4c3)[C@H](N)C[C@@H]2N)[C@H](N)[C@@H](O)[C@@H]1OCc1ccc2ccccc2c1`, the MIC was 64 µg/mL (≈ 106 µM) in the test with Acinetobacter lwoffii [1]; 32 µg/mL (≈ 53.1 µM) with Pseudomonas aeruginosa [2] (PA405, 24 h); above 128 µg/mL against Pseudomonas aeruginosa [3] (PA22, 24 h); above 128 µg/mL against Pseudomonas aeruginosa [4] (ATCC 27853, 24 h); 16 µg/mL (≈ 26.5 µM) against Pseudomonas aeruginosa [5] (PA03, 24 h); above 128 µg/mL with Klebsiella pneumoniae (ATCC 700603, 24 h). In addition, the MIC is 64 µg/mL (≈ 106 µM) against Escherichia coli [6] (PAZ505H8101, 24 h); above 128 µg/mL with Acinetobacter lwoffii [7] (AI.88-483, 24 h); 16 µg/mL (≈ 26.5 µM) with Pseudomonas aeruginosa [8] (PA406, 24 h); above 128 µg/mL with Pseudomonas aeruginosa [9] (F03, 24 h); 128 µg/mL (≈ 212 µM) in the test on Escherichia coli [10]; above 128 µg/mL with Pseudomonas aeruginosa [11] (PT629, 24 h). The MIC with Staphylococcus aureus [17] is 16 µg/mL (≈ 26.5 µM); with Staphylococcus aureus [18] it was 64 µg/mL (≈ 106 µM); against Staphylococcus aureus [19] it was 32 µg/mL (≈ 53.1 µM); in the test on Pseudomonas aeruginosa [13] (PA21, 24 h), above 128 µg/mL; with Escherichia coli [14] (L58058.1, 24 h), 128 µg/mL (≈ 212 µM); in the test with Staphylococcus aureus [20], 32 µg/mL (≈ 53.1 µM). Besides, the MIC in the test with Staphylococcus aureus [21] was 32 µg/mL (≈ 53.1 µM); in the test with Staphylococcus aureus [22], 32 µg/mL (≈ 53.1 µM); against Pseudomonas aeruginosa [15] (PA01, 24 h) it was 128 µg/mL (≈ 212 µM); against Staphylococcus aureus [23] it was 16 µg/mL (≈ 26.5 µM); with Staphylococcus aureus [24] it was 32 µg/mL (≈ 53.1 µM); in the test with Pseudomonas aeruginosa [16] (PAO1, 24 h), above 128 µg/mL.

Regarding `NC[C@H]1O[C@H](O[C@H]2[C@H](OCc3ccc4ccccc4c3)[C@@H](O)[C@H](N)C[C@@H]2N)[C@H](N)[C@@H](O)[C@@H]1OCc1ccc2ccccc2c1`, the MIC against Acinetobacter lwoffii [1] was 32 µg/mL (≈ 53.1 µM); with Pseudomonas aeruginosa [2] (PA405, 24 h) it was 16 µg/mL (≈ 26.5 µM); in the test on Pseudomonas aeruginosa [3] (PA22, 24 h), above 128 µg/mL; in the test with Pseudomonas aeruginosa [4] (ATCC 27853, 24 h), 128 µg/mL (≈ 212 µM); in the test with Pseudomonas aeruginosa [5] (PA03, 24 h), above 128 µg/mL; against Klebsiella pneumoniae (ATCC 700603, 24 h), above 128 µg/mL. The MIC against Escherichia coli [6] (PAZ505H8101, 24 h) is 128 µg/mL (≈ 212 µM); in the test on Acinetobacter lwoffii [7] (AI.88-483, 24 h), above 128 µg/mL; with Pseudomonas aeruginosa [8] (PA406, 24 h), 16 µg/mL (≈ 26.5 µM); in the test with Pseudomonas aeruginosa [9] (F03, 24 h), above 128 µg/mL; against Escherichia coli [10] it was 128 µg/mL (≈ 212 µM); against Pseudomonas aeruginosa [11] (PT629, 24 h), above 128 µg/mL. Moreover, the MIC is 128 µg/mL (≈ 212 µM) against Staphylococcus aureus [17]; 64 µg/mL (≈ 106 µM) with Staphylococcus aureus [18]; 64 µg/mL (≈ 106 µM) against Staphylococcus aureus [19]; above 128 µg/mL in the test on Pseudomonas aeruginosa [13] (PA21, 24 h); 128 µg/mL (≈ 212 µM) against Escherichia coli [14] (L58058.1, 24 h); 128 µg/mL (≈ 212 µM) with Staphylococcus aureus [20]. Moreover, the MIC is 64 µg/mL (≈ 106 µM) in the test with Staphylococcus aureus [21]; 128 µg/mL (≈ 212 µM) in the test with Staphylococcus aureus [22]; above 128 µg/mL in the test with Pseudomonas aeruginosa [15] (PA01, 24 h); 32 µg/mL (≈ 53.1 µM) against Staphylococcus aureus [23]; 128 µg/mL (≈ 212 µM) in the test with Staphylococcus aureus [24]; above 128 µg/mL in the test on Pseudomonas aeruginosa [16] (PAO1, 24 h).
